Assay [1] concerns the target recombinant human GMPS (Homo sapiens (Human), UniProt P49915). Briefly: enzymatic assay against recombinant GMPS, UV absorbance at 290 nm. Particulars: for IC50 against GMPS, in words: recombinant GMPS; for pIC50: recombinant human GMPS.
Description: The potency of the five compounds was tested against recombinant GMPS in an enzymatic assay by monitoring UV absorbance at 290 nm and by determining an IC50.
The test system of assay [2] is HL-60(TB) cells. Briefly: Sulforhodamin B viability assay. The class given is cell-based. Particulars: Leukemia, negative values represent cell mortality percentage.
Assay [3] concerns eight distinct cancer cell lines. As to the kind of experiment: Sulforhodamin B viability assay, all cell lines. It is filed as cell-based. Particulars: across all the eight cell lines tested.
In assay [4] the test system is HT29 cells. As to the kind of experiment: Sulforhodamin B viability assay. Particulars: HT29, Colon Cancer; negative values represent cell mortality percentage. The class given is cell-based.
Assay [5] deals with OVCAR-5 cells. As to the kind of experiment: Sulforhodamin B viability assay. The class given is cell-based. Particulars: OVCAR-5, Ovarian Cancer; negative values represent cell mortality percentage.
Assay [6] has as its system SK-MEL-5 cells. As to the kind of experiment: Sulforhodamin B viability assay. It is filed as cell-based. Particulars: SK-MEL-5, Melanoma; negative values represent cell mortality percentage.
In assay [7] the test system is NCI-H23 cells. Briefly: Sulforhodamin B viability assay. It is filed as cell-based. Particulars: NCI-H23, Non-Small Cell Lung Cancer; negative values represent cell mortality percentage.
Assay [8] deals with SF-539 cells. Briefly: Sulforhodamin B viability assay. Particulars: SF-539, CNS Cancer; negative values represent cell mortality percentage. The class given is cell-based.
Assay [9] relates to BT-549 cells. As to the kind of experiment: Sulforhodamin B viability assay. It is filed as cell-based. Particulars: BT-549, Breast Cancer; negative values represent cell mortality percentage.
Assay [10] has as its system UO-31 cells. Briefly: Sulforhodamin B viability assay. It is filed as cell-based. Particulars: UO-31, Renal Cancer; negative values represent cell mortality percentage.

From patent US20250263383A1, “NOVEL INHIBITORS OF GUANOSINE MONOPHOSPHATE SYNTHETASE AS THERAPEUTIC AGENTS” (University of Southern California, priority 2018, published 2025) come the findings set out here.

The pIC50 is the IC50 on a negative log10 scale, so that one unit is a factor of ten.

pIC50: −log10 of the molar value.

Chain of recombinant human GMPS (P49915 whole entry): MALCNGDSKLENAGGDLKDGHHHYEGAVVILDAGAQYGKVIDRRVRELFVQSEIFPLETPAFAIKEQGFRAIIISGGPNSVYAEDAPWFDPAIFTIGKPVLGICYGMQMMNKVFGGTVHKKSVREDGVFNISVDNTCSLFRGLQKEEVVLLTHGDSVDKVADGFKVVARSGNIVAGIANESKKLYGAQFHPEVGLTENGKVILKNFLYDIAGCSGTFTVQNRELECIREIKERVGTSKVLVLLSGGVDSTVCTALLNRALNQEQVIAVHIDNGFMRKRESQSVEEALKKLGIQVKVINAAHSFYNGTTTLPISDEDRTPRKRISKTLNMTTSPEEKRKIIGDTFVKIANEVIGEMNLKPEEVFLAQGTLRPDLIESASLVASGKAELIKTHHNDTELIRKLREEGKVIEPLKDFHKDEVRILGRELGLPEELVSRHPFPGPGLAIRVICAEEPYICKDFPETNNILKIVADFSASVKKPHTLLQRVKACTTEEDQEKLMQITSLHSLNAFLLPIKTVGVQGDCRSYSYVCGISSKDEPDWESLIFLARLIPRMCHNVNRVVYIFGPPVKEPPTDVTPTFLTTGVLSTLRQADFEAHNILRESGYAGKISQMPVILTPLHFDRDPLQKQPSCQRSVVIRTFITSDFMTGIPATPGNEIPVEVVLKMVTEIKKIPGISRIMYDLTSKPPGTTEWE

With `C#CCOc1cccc(C(=O)Nc2cccc(NC(=O)CCl)c2)c1` [Compound 5, N-(3-(2-chloroacetamido)phenyl)-3-(prop-2-yn-1-yloxy)benzamide], in assay [1], the “IC50 against GMPS, in words” value is reported as “less active” and the negative logarithm of the IC50 (pIC50) was less than 6.00.
For the compound `COc1cccc(Nc2ncnc3ccc(NC(C)=O)cc23)c1` [Compound 3, N-(4-((3-methoxyphenyl)amino)quinazolin-6-yl) acetamide], in assay [1], the “IC50 against GMPS, in words” value is recorded as “less active” and the pIC50 is less than 6.00.
On to `C#CCOc1cccc(Nc2ncnc3ccc(NC(=O)CCl)cc23)c1` [Compound 1, 2-chloro-N-(4-((3-(prop-2-yn-1-yloxy)phenyl)amino)quinazolin-6-yl) acetamide], for which the Cell survival is on record as −58.4% in [2]; −78.6% in assay [4]; −70.1% in assay [5]; −92.8% in [6]; −66.8% in [7]; −86.6% in assay [8]. For the same compound, the Cell survival was −68.9% in [9] and −87.8% in assay [10]. In addition, the cell death in assay [3] was greater than 50%.
